Consider 5 compounds from US11512069B2, “TLR7/8 antagonists and uses thereof” (Merck Patent GmbH, priority 2016, dated 2022).

In the assay the target is T1, TLR7 (Homo sapiens, UniProt Q9NYK1).
T1 construct: expressed in transfected cells; host or cells: HEK cells carrying TLR7 and an NF-kB reporter read with Steady-Glo
T1 sequence (Q9NYK1 27-1049): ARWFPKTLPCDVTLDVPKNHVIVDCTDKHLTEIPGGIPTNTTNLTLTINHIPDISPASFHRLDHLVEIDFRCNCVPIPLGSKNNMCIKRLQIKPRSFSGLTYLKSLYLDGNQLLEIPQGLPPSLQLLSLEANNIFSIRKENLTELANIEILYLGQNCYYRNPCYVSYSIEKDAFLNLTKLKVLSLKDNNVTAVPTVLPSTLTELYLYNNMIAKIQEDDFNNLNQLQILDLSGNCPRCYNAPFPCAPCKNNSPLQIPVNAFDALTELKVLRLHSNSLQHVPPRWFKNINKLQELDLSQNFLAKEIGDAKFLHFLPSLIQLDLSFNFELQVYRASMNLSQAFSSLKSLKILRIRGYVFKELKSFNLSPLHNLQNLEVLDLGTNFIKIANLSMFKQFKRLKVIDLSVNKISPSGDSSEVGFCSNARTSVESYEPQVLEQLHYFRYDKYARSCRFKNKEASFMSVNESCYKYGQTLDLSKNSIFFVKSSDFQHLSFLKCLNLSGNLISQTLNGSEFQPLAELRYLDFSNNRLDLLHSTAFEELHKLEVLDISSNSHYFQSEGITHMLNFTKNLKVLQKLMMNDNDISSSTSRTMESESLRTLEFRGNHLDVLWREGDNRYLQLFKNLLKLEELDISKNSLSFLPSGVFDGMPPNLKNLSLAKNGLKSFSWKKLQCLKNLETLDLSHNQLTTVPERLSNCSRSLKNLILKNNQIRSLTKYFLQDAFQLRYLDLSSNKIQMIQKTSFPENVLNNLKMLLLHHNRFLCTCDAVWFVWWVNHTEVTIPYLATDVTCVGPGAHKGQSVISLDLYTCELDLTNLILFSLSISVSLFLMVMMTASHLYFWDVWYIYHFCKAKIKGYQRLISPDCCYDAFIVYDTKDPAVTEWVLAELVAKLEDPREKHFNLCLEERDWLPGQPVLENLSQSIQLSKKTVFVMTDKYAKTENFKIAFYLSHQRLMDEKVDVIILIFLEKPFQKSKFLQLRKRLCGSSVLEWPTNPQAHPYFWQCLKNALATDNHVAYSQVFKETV
In words: HEK Cell Assay (TLR7/NFKb HEK reporter cells, Steady-Glo). The class given is cell-based. The following applies: compound 30 min, then R*48 agonist 5 hours, Steady-Glo readout, read-out: Potency. In a few lines: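 TLR7/NF-κB HEK reporter cells cultured 24 h, then pre-incubated 30 min with compound before adding R*48 agonist. Luciferase read by Steady-Glo luminescence after 5 h.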

`CC(C)[C@H](O)C(=O)N[C@H]1C[C@@H](C)C[C@@H](c2ccc(C#N)c3nccnc23)C1` [Compound 126, (S)—N-((1S,3R,5S)-3-(8-cyanoquinoxalin-5-yl)-5-methylcyclohexyl)-2-hydroxy-3-methylbutanamide]: the IC50 was in the range of 1 to 20 µM.

Regarding `C[C@@H]1C[C@H](c2ccc(OC(F)(F)F)c3ncccc23)CN(C(=O)CC2CCN(C)CC2)C1` [Compound 103, 2-(1-Methyl-piperidin-4-yl)-1-[(3R,5R)-3-methyl-5-(8-trifluoromethoxy-quinolin-5-yl)-piperidin-1-yl]-ethanone], the IC50 fell in the range of 1 to 20 µM.

In the case of `C[C@@H]1C[C@H](c2ccc(C#N)c3ncccc23)CN(C(=O)Cc2cccnc2)C1` (relative stereo) [Compound 20], the IC50 was over 20 µM.

As for `COc1ccc([C@@H]2C[C@@H](C)CN(C(=O)CC3CCN(C)CC3)C2)c2cccnc12` [Compound 86, 1-[(3S,5R)-3-(8-Methoxy-quinolin-5-yl)-5-methyl-piperidin-1-yl]-2-(1-methyl-piperidin-4-yl)-ethanone], the IC50 is under 1 µM.

In the case of `COCCN[C@@H]1C[C@H](C)C[C@H](c2ccc(F)c3nccnc23)C1` (racemic) [Compound 159, (cis-1,3,5)-3-(8-fluoroquinoxaline-5-yl)-N-(2-methoxyethyl)-5-methylcyclohexan-1-amine], the IC50 lay in the range of 1 to 20 µM.
